The target of test [1] is T1, Serine/threonine-protein kinase 17A (Homo sapiens) (UniProt Q9UEE5).
T1 sequence (whole entry): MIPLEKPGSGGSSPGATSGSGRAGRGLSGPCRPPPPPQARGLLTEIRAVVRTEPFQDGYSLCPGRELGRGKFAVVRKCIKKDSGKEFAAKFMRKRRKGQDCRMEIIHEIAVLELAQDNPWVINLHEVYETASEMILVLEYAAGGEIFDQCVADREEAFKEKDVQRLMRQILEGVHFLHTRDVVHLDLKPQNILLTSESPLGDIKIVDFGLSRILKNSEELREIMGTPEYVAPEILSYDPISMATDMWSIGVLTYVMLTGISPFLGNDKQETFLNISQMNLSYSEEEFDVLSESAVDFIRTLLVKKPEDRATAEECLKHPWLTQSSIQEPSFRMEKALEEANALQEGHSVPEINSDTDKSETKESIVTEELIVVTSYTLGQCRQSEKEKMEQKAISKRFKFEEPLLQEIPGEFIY
Briefly: Selectivity interaction (ProQinase) EUB0000171b STK17A.

Test [2] concerns the target Tyrosine-protein kinase BTK (Homo sapiens, UniProt Q06187). Particulars: at 10 µM.
For test [3], the target named is T2, Inhibitor of nuclear factor kappa-B kinase subunit epsilon (Homo sapiens) (UniProt Q14164).
T2 sequence (whole entry): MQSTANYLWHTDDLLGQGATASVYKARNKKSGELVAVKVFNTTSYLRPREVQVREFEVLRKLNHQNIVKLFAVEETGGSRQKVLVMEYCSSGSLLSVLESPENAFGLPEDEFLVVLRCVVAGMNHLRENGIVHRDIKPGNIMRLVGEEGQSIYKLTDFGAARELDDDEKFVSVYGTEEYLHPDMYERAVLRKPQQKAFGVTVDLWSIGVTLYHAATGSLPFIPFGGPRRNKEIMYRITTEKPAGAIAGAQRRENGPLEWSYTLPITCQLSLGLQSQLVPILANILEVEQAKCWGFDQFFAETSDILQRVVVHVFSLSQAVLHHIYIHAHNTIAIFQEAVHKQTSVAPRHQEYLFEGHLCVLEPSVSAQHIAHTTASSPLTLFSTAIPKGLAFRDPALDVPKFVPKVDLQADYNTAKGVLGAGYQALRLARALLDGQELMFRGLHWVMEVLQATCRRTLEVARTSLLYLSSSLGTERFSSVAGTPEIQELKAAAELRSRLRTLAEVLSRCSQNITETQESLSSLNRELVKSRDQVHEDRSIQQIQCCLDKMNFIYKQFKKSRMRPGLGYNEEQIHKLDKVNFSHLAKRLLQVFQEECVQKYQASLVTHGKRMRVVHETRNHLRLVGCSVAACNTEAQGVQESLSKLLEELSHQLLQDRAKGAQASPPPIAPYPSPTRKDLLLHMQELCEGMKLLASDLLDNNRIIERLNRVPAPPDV
Particulars: at 10 µM.

Test [4] has as its target Casein kinase I isoform delta (Homo sapiens, UniProt P48730). Briefly: Selectivity interaction (KinomeScan (DiscoverX)) EUB0000092b CSNK1D. Particulars: at 10 µM.
The subject of test [5] is Tyrosine-protein kinase ABL1 (Homo sapiens), P00519 [T315I]. Briefly: Selectivity interaction (KinomeScan (DiscoverX)) EUB0000655a ABL1. Particulars: at 10 µM.
The target in test [6] is Mitogen-activated protein kinase kinase kinase kinase 1 (Homo sapiens) (UniProt Q92918). Briefly: Selectivity interaction (ActivX KiNativ screen (kinase selectivity in THP-1 cell lysates)) EUB0000639a MAP4K1. Particulars: lysate, at 0.2 µM. Format: subcellular.
Chain of Mitogen-activated protein kinase kinase kinase kinase 1 (Homo sapiens) (Q92918 whole entry, looked up): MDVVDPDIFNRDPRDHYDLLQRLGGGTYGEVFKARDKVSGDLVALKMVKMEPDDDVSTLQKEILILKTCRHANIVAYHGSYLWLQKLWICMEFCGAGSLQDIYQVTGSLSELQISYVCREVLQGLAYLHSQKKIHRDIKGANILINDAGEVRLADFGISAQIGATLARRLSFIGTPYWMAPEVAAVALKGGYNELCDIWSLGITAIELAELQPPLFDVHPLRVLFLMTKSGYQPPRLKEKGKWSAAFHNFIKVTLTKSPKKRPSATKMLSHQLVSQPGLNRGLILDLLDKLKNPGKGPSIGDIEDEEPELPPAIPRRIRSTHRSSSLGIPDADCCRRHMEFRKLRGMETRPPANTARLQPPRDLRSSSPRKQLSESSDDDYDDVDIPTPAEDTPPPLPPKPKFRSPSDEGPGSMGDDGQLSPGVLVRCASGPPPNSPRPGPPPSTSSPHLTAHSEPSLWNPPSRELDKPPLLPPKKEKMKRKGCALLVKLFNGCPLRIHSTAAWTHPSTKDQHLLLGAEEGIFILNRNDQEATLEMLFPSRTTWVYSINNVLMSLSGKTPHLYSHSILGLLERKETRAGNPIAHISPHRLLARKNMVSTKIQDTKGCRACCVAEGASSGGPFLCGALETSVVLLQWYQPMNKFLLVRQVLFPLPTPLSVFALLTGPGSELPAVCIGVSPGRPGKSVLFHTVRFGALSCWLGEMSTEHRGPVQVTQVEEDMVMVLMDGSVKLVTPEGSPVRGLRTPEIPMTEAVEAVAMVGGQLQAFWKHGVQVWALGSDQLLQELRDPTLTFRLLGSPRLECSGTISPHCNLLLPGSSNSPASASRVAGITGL
Test [7] addresses Serine/threonine-protein kinase 16 (Homo sapiens, UniProt O75716). Briefly: Selectivity interaction (ActivX KiNativ screen (kinase selectivity in THP-1 cell lysates)) EUB0000639a STK16. Format: subcellular. The settings on record: lysate, at 0.01 µM.
For test [8], the target named is T3, Serine/threonine-protein kinase DCLK2 (Homo sapiens) (UniProt Q8N568).
T3 sequence (whole entry): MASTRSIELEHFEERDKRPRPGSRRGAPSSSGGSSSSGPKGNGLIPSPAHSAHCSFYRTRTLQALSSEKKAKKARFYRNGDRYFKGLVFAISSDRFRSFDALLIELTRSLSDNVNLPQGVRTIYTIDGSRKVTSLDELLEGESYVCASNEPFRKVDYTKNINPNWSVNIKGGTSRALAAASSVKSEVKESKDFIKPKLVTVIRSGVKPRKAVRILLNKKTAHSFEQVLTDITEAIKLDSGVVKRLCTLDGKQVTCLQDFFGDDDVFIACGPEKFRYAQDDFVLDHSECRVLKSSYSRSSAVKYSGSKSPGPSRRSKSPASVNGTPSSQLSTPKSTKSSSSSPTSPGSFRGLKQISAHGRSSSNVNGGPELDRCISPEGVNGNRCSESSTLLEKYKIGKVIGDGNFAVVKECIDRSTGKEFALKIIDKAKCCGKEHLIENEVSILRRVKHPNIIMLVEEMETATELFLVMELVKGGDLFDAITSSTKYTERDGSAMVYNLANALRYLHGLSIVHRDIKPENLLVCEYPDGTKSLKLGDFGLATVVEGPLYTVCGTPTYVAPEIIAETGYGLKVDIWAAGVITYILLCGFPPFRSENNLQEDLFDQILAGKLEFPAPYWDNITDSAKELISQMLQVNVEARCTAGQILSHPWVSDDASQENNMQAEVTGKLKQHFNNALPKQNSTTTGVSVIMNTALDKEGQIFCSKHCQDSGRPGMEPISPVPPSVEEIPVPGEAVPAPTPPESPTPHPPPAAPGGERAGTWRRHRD
Briefly: Selectivity interaction (Kinase panel (Invitrogen)) EUB0000639a DCLK2. Particulars: at 200 nM.

Test [9] addresses Serine/threonine-protein kinase pim-3 (Homo sapiens) (UniProt Q86V86). Briefly: Selectivity interaction (KinomeScan (DiscoverX)) EUB0000595a PIM3. Particulars: at 10 µM.

Chain of Serine/threonine-protein kinase 16 (O75716 whole entry): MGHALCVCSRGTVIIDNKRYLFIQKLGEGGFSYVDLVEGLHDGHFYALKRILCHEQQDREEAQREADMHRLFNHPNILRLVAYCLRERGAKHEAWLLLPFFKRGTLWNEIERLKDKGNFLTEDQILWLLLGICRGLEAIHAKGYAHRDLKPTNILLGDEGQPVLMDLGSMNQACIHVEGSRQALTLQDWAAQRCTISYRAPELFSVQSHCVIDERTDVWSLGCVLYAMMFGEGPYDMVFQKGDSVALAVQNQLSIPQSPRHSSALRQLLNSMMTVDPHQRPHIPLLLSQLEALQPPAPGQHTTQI
Chain of Casein kinase I isoform delta (P48730 whole entry, looked up, canonical isoform): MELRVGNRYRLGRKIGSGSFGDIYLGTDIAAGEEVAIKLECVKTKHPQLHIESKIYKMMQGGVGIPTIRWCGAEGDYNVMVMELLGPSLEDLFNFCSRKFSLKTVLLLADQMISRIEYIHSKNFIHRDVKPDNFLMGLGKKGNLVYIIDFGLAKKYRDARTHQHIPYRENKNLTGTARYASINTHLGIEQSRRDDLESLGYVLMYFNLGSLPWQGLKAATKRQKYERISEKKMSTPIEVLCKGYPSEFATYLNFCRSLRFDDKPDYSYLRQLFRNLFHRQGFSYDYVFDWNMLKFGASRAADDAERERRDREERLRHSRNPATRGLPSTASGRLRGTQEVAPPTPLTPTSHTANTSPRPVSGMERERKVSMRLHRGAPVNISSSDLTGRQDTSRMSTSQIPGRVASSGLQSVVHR
Chain of Tyrosine-protein kinase BTK (Q06187 whole entry): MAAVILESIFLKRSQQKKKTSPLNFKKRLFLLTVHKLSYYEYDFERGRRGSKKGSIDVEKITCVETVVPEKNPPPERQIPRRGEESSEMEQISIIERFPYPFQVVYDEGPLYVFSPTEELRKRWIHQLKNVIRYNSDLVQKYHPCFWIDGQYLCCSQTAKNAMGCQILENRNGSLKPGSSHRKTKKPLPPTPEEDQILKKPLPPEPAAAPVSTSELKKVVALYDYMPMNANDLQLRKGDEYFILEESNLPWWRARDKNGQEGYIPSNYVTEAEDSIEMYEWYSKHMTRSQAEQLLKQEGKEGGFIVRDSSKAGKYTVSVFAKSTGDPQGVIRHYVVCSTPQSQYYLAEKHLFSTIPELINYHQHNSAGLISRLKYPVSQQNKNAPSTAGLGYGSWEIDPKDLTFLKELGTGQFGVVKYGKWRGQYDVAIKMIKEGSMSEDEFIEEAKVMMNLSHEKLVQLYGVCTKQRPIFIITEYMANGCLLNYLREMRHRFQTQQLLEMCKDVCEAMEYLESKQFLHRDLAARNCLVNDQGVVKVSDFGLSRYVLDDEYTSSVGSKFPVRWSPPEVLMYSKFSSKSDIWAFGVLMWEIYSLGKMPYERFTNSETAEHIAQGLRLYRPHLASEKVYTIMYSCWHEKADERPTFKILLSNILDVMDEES

Take `C=CC(=O)Nc1cccc(C(=O)Nc2ccc(Nc3cc(-c4[nH]c(SC)nc4C)ccn3)cc2)c1`: the values for the % of control in [1] (at 1 µM) and in test [1] (at 5 µM) were 78% and 35%, respectively.

On to `Cc1cc([C@@H](C)Nc2ccccc2C(=O)O)c2nc(N3CCOCC3)cc(=O)n2c1` [AZD-6482], for which the % of control in test [2] was found to be 97%.

In the case of `CCN(CC)CCCCNc1ncc2cc(-c3cc(OC)cc(OC)c3)c(NC(=O)NC(C)(C)C)nc2n1`, the % of control in test [3] is 100%.

Turning to `CCC(=O)N1CCN(c2ccc(-n3c(=O)ccc4cnc5ccc(-c6cnc7ccccc7c6)cc5c43)cc2C(F)(F)F)CC1`, the % of control in [4] was determined as 4.3%.

`CN(C)CCOc1ccc(-c2nc(-c3ccncc3)c(-c3ccc4c(c3)CC/C4=N\O)[nH]2)cc1` yielded a % of control in test [5] of 5.4%.

As to `CC[C@@H]1[C@H](F)C(=O)N[C@@H]1COc1nccc2cc(C(N)=O)c(OC)cc12` [ZIMLOVISERTIB], the values for the % of inhibition in [6], in test [7] and in test [8] were -15.1%, 21.2% and 24.9%, respectively.

Regarding `COCC(=O)NC/C=C/c1ccc2ncnc(Nc3ccc(Oc4ccc(C)nc4)c(C)c3)c2c1` [CP-724714], the % of control in [9] stood at 100%.

The record behind these values is ChEMBL document CHEMBL5465560, “Selectivity Literature for EUbOPEN Chemogenomic Library” (2024).
